Results: ChEMBL document CHEMBL1255450, “Detection of E119V and E119I mutations in influenza A (H3N2) viruses isolated from an immunocompromised patient: challenges in diagnosis of oseltamivir resistance” (Antimicrob Agents Chemother, 2010)

How the values were obtained:
Influenza A virus [1] = assay: Antiviral activity against Influenza A virus (A/Washington/01/2007 (H3N2)) measured in MDCK cells by NA inhibition assay; format: functional, organism-based
Influenza A virus [2] = assay: Antiviral activity against Influenza A virus (A/Washington/01/2007 (H3N2)) measured in MDCK cells by fluorescent NA inhibition assay; format: functional, organism-based

SMILES	IC50 (Influenza A virus [1])	IC50 (Influenza A virus [2])
C/C=C\[C@@H]1C[C@H](C(=O)O)N[C@H]1[C@@H](NC(C)=O)[C@](C)(CCC)OC	740 pM	1220 pM
CCOC(=O)C1=C[C@@H](OC(CC)CC)[C@H](NC(C)=O)[C@@H](N)C1 [OSELTAMIVIR]	160 pM	440 pM
CCC(CC)[C@H](NC(C)=O)[C@@H]1[C@H](O)[C@@H](C(=O)O)C[C@H]1NC(=N)N [PERAMIVIR ANHYDROUS]	280 pM	500 pM
